Assay type in all cases: physicochemical
Series [1] is described as follows: Extraction of acrylic acid with tetra (n-butyl) urea, distribution coefficient by titration (Example 3). Particulars: 28% extractant in cyclohexane; 1.9% acrylic acid in water; equal volumes. The source says: (§1) A 1.9% solution of acrylic acid in water was equilibrated with an equal volume of a 28% solution of tetra-(n-butyl) urea in cyclohexane. […] A similar experiment with 0.2% acetic acid in 18% sodium chloride as the aqueous phase, and 0.5 M tetrabutyl urea in Chevron 25 as the extractant, gave a distribution coefficient of 0.40.

The nature of series [2]: Extraction of acetic acid with tetra (n-butyl) urea, distribution coefficient (Example 3). Particulars: 0.5 M extractant in Chevron 25; 0.2% acetic acid in 18% sodium chloride.
Source text: as §1

Series [3] can be described thus: Extraction of acetic acid from 18% aqueous NaCl with polar extractants, distribution coefficient by radiometric counting (Example 1). The note with it: 1920 ppm acetic acid in 18% aqueous NaCl, equal volumes, 30 min. An excerpt: (§2) A trace quantity of radioactive carbon-14 labeled acetic acid was included. Portions of this solution were shaken for thirty minutes with equal volumes of extractant solutions having the compositions set out in the following table. The phases were allowed to disengage, separated and their relative acetic acid concentrations determined by radiometric counting in a scintillation counter. The distribution coefficient (ratio of acetic acid concentrations in organic and aqueous phase) for each extraction is also given in the table.

Series [4] is described as follows: Extraction of glycolic acid with TOPO solutions, distribution coefficient (Example 2). The note with it: for Distribution Coefficient For: Glycolic: about 0.025 molar acid.
Source text: as §2, with “A solution of 1920 ppm (approximately 0.2 percent) of acetic acid in 18% aqueous NaCl was made up. A” for “A”
(§3) In the manner of Example 1, about 0.025 molar aqueous solutions of acetic, glycolic and lactic acids were extracted with equal volumes of TOPO (trioctyl phosphine oxide) solutions in kerosene or Chevron 3.

Series [5] in a line: Extraction of acetic acid with TOPO solutions, distribution coefficient (Example 2). Particulars: about 0.025 molar acid.
Source text: as §2, with “A solution of 1920 ppm (approximately 0.2 percent) of acetic acid in 18% aqueous NaCl was made up. A” for “A”
as §3

Series [6] can be described thus: Extraction of lactic acid with TOPO solutions, distribution coefficient (Example 2). Particulars: about 0.025 molar acid.
Source text: as §2, with “A solution of 1920 ppm (approximately 0.2 percent) of acetic acid in 18% aqueous NaCl was made up. A” for “A”
as §3

[7] abbreviates: 0.2 M TOPO in kerosene, aqueous phase 1 Molar NaCl.
Setting [8] is: 0.5 M TOPO in Chevron 3, aqueous phase 1 Molar NaCl.
Where [9] appears, read: 0.5 M TOPO in Chevron 3, aqueous phase water.

`CCCCN(CCCC)C(=O)N(CCCC)CCCC` [tetra-(n-butyl) urea]: in series [1], the “distribution coefficient for the acrylic acid (organic/aqueous)” value turned out to be 1.05. In addition, in series [2], the “distribution coefficient (acetic acid)” value turned out to be 0.40.
Regarding `CCCC[S+]([O-])CCCC` [Di(n-butyl) sulfoxide], the “Distribution coefficient (ratio of acetic acid concentrations in organic and aqueous phase)” value is given as 0.18 in series [3] (0.1 M extractant in Chevron 25) and 1.00 in series [3] (0.5 M extractant in Chevron 25).
As for `O=C(O)CO` [glycolic acid], the “extraction effectiveness of glycolic acid relative to acetic and lactic acids” value in series [4] (TOPO solutions in kerosene or Chevron 3) is “much less effectively extracted than acetic and lactic acids”.
With `CCCCCCCCP(=O)(CCCCCCCC)CCCCCCCC` [Trioctyl phosphine oxide, trioctyl phosphine oxide], the “Distribution coefficient (ratio of acetic acid concentrations in organic and aqueous phase)” value in series [3] (0.5 M extractant in Chevron 25) worked out at 6.1. For the same compound, the “Distribution Coefficient For: Acetic” value was 1.46 in series [5] (setting [7]), 3.2 in series [5] (setting [8]) and 2.8 in series [5] (setting [9]). Besides, the figures for the “Distribution Coefficient For: Lactic” value in series [6] (setting [7]), in series [6] (setting [8]) and in series [6] (setting [9]) were 0.40, 1.4 and 1.02, respectively. Moreover, the “Distribution Coefficient For: Glycolic” value in series [4] (setting [7]) was 0.13; in series [4] (setting [8]), 0.39; in series [4] (setting [9]), 0.35.

These data come from patent US3980703A, “Extraction of carboxylic acids from dilute aqueous solutions” (The Dow Chemical Company, priority 1975, dated 1976).
